Measurements: ChEMBL document CHEMBL4145625 (J Med Chem, 2018)
≈ marks a conversion by molar mass, not a printed value.

Assays:
NCI-H460 [1] = assay: cells; type: functional, cell-based; settings: Homo sapiens, NCI-H460, 96 h
Description: Cytotoxicity against human NCI-H460 cells after 96 hrs by MTT assay

MDA-MB-231 = assay: cells; type: functional, cell-based; settings: Homo sapiens, MDA-MB-231, 96 h
Description: Cytotoxicity against human MDA-MB-231 cells after 96 hrs by MTT assay

DU-145 = assay: cells; type: functional, cell-based; settings: Homo sapiens, DU-145, 96 h
Description: Cytotoxicity against human DU145 cells after 96 hrs by MTT assay

HGC-27 [2] = assay: Antitumor activity against human HGC27 cells xenografted in BALB/c nude mouse assessed as tumor growth inhibition at […], po administered once daily for 15 days measured at post last dose relative to control; type: functional; settings: HGC-27, po, 360 h, read-out: TGI
Mus musculus [3] = assay: Toxicity in human HGC27 cells xenografted in BALB/c nude mouse assessed as reduction in body weight at […], po administered once daily for 15 days measured at post last dose; type: organism-based; settings: in vivo, 360 h
U-87 MG = assay: Antitumor activity against Luc tagged human U87MG cells xenografted in BALB/c nude mouse glioblastoma orthotopic model assessed as tumor growth inhibition at 5 mg/kg, po qd by MRI method relative to control; type: functional, U-87MG ATCC; settings: read-out: TGI
Mus musculus [4] = assay: In vivo inhibition of PI3Kalpha in po dosed athymic BALB/c nude mouse xenografted with human NCI-H460 cells administered as single dose via gavage after 2 to 24 hrs; type: functional, organism-based
NCI-H460 [5] = assay: Antitumor activity against human NCI-H460 cells xenografted in po dosed athymic BALB/c nude mouse administered as single dose via gavage after 2 to 24 hrs; type: functional, organism-based
Salmonella typhimurium [6] = assay: Mutagenicity in Salmonella typhimurium TA98 at 500 ug/plate after 72 hrs by Ames test; type: toxicity, organism-based; settings: salmonella enterica subsp. enterica serovar typhimurium
Salmonella typhimurium [7] = assay: Mutagenicity in Salmonella typhimurium TA100 at 500 ug/plate after 72 hrs by Ames test; type: toxicity, organism-based; settings: salmonella enterica subsp. enterica serovar typhimurium
Salmonella typhimurium [8] = assay: Mutagenicity in Salmonella typhimurium TA1535 at 500 ug/plate after 72 hrs by Ames test; type: toxicity, organism-based; settings: salmonella enterica subsp. enterica serovar typhimurium
Salmonella typhimurium [9] = assay: Mutagenicity in Salmonella typhimurium TA1535 up at 50 ug/plate after 72 hrs in presence of S9 fraction by Ames test; type: toxicity, organism-based; settings: salmonella enterica subsp. enterica serovar typhimurium, s9, 72 h
Salmonella typhimurium [10] = assay: Mutagenicity in Salmonella typhimurium TA97 at 500 ug/plate after 72 hrs by Ames test; type: toxicity, organism-based; settings: salmonella enterica subsp. enterica serovar typhimurium
[11] = target: Voltage-gated inwardly rectifying potassium channel KCNH2 (Homo sapiens, UniProt Q12809)
Description: Inhibition of human ERG expressed in CHO cell membranes by patch clamp method

Cytochrome P450 2C9 = Cytochrome P450 2C9 (Homo sapiens, UniProt P11712)
Description: Inhibition of CYP2C9 in human liver microsomes assessed as reduction in 4-Hydroxydiclofenac formation using diclofenac as substrate after 10 to 20 mins in presence of NADPH by LC-MS/MS analysis

Cytochrome P450 3A4 = Cytochrome P450 3A4 (Homo sapiens, UniProt P08684)
Description: Inhibition of CYP3A4 in human liver microsomes assessed as reduction in 1-Hydroxymidazolam formation using midazolam as substrate after 10 to 20 mins in presence of NADPH by LC-MS/MS analysis

[12] = mouse, in vivo, po, 10 mg/kg, 24 h
in vivo [13] = settings: ICR, mouse, plasma, po, 30 mg/kg
in vivo [14] = settings: ICR, mouse, plasma, iv, 3 mg/kg
Description: Volume of distribution at steady state in ICR mouse plasma at 3 mg/kg, iv by LC/MS/MS analysis

in vivo [15] = settings: ICR, mouse, plasma, iv, 3 mg/kg; remark: listed apart in the source
Description: Clearance in ICR mouse plasma at 3 mg/kg, iv by LC/MS/MS analysis

in vivo [16] = settings: ICR, mouse, plasma, po, 30 mg/kg; remark: listed apart in the source
in vivo [17] = settings: ICR, mouse, brain, po, 30 mg/kg
in vivo [18] = settings: athymic BALB/c nude, mouse, plasma, po, 10 mg/kg
in vivo [19] = settings: ICR, mouse, po
Description: Toxicity in po dosed ICR mouse administered as single dose via oral gavage measured after 14 days

in vitro [20] = settings: human, plasma
Description: Protein binding in human plasma at 2 uM after 6 hrs by LC-MS/MS analysis

in vitro [21] = settings: ICR, mouse, plasma
Description: Protein binding in ICR mouse plasma at 2 uM after 6 hrs by LC-MS/MS analysis

HGC-27 [22] = assay: Antitumor activity against human HGC27 cells xenografted in BALB/c nude mouse assessed as tumor growth inhibition at 10 mg/kg, po administered once daily for 15 days measured at post last dose relative to control; type: functional; settings: HGC-27, po, 360 h, read-out: TGI
Mus musculus [23] = assay: Toxicity in human HGC27 cells xenografted BALB/c nude mouse assessed as reduction in body weight at 10 mg/kg, po administered once daily for 15 days measured at post last dose; type: organism-based; settings: in vivo, 360 h
NCI-H460 [24] = assay: Antitumor activity against human NCI-H460 cells xenografted in BALB/c nude mouse assessed as tumor growth inhibition at 20 mg/kg, po administered once daily after 16 days relative to control; type: functional; settings: 384 h, read-out: TGI
NCI-H460 [25] = assay: Antitumor activity against human NCI-H460 cells xenografted in BALB/c nude mouse assessed as tumor growth inhibition at 10 mg/kg, po administered once daily after 16 days relative to control; type: functional; settings: 384 h, read-out: TGI
NCI-H460 [26] = assay: Antitumor activity against human NCI-H460 cells xenografted in BALB/c nude mouse assessed as tumor growth inhibition at 5 mg/kg, po administered once daily after 16 days relative to control; type: functional; settings: 384 h, read-out: TGI
MGC-803 [27] = assay: Antitumor activity against human MGC803 cells xenografted in BALB/c nude mouse assessed as tumor growth inhibition at 5 mg/kg, po administered once daily for 18 days measured at post last dose relative to control; type: functional; settings: MGC-803, po, 432 h, read-out: TGI
MGC-803 [28] = assay: Antitumor activity against human MGC803 cells xenografted in BALB/c nude mouse assessed as tumor growth inhibition at 10 mg/kg, po administered once daily for 18 days measured at post last dose relative to control; type: functional; settings: MGC-803, po, 432 h, read-out: TGI
MGC-803 [29] = assay: Antitumor activity against human MGC803 cells xenografted in BALB/c nude mouse assessed as tumor growth inhibition at 20 mg/kg, po administered once daily for 18 days measured at post last dose relative to control; type: functional; settings: MGC-803, po, 432 h, read-out: TGI
HGC-27 [30] = assay: Antitumor activity against human HGC27 cells xenografted in BALB/c nude mouse assessed as tumor growth inhibition at 5 mg/kg, po administered once daily for 15 days measured at post last dose relative to control; type: functional; settings: HGC-27, po, 360 h, read-out: TGI
Mus musculus [31] = assay: Toxicity in human NCI-H460 cells xenografted BALB/c nude mouse assessed as reduction in body weight at 5 to 20 mg/kg, po administered once daily after 16 days; type: organism-based; settings: in vivo, 384 h
Mus musculus [32] = assay: Toxicity in human MGC803 cells xenografted BALB/c nude mouse assessed as reduction in body weight at 5 to 20 mg/kg, po administered daily for 18 days measured at post last dose; type: organism-based; settings: in vivo, 432 h
NCI-H460 [33] = settings: Homo sapiens
Description: Antitumor activity against human NCI-H460 cells xenografted in po dosed BALB/c nude mouse assessed as tumor growth inhibition administered once daily after 16 days

MGC-803 [34] = settings: Homo sapiens
Description: Antitumor activity against human MGC803 cells xenografted in po dosed BALB/c nude mouse assessed as tumor growth inhibition administered once daily measured at post last dose

Chain of Cytochrome P450 2C9 (P11712 whole entry): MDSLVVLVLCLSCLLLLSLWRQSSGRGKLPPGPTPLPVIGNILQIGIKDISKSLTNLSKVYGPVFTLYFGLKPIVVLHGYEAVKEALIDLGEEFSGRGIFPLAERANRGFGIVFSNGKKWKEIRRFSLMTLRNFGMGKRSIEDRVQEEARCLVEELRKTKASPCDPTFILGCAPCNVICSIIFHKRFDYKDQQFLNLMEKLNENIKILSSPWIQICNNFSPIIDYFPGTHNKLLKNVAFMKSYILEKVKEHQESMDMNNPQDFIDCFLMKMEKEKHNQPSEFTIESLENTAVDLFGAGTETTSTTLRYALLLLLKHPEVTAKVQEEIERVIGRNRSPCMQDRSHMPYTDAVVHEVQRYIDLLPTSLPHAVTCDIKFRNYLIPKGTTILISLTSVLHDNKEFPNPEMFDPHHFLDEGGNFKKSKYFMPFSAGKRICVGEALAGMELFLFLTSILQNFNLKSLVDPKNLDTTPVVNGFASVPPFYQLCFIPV
Chain of Cytochrome P450 3A4 (P08684 whole entry): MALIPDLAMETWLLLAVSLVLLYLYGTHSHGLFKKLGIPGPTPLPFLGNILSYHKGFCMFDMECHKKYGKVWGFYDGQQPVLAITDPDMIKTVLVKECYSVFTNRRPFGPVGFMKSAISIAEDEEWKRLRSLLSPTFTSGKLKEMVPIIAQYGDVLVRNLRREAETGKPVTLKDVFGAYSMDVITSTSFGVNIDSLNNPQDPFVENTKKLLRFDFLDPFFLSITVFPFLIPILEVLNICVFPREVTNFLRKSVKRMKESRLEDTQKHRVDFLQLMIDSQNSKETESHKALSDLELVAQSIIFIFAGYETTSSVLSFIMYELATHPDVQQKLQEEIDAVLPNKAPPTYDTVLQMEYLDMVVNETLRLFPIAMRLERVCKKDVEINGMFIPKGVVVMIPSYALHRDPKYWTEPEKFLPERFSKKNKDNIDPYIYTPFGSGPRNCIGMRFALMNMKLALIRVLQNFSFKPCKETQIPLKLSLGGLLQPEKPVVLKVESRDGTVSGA
Chain of Voltage-gated inwardly rectifying potassium channel KCNH2 (Q12809 whole entry): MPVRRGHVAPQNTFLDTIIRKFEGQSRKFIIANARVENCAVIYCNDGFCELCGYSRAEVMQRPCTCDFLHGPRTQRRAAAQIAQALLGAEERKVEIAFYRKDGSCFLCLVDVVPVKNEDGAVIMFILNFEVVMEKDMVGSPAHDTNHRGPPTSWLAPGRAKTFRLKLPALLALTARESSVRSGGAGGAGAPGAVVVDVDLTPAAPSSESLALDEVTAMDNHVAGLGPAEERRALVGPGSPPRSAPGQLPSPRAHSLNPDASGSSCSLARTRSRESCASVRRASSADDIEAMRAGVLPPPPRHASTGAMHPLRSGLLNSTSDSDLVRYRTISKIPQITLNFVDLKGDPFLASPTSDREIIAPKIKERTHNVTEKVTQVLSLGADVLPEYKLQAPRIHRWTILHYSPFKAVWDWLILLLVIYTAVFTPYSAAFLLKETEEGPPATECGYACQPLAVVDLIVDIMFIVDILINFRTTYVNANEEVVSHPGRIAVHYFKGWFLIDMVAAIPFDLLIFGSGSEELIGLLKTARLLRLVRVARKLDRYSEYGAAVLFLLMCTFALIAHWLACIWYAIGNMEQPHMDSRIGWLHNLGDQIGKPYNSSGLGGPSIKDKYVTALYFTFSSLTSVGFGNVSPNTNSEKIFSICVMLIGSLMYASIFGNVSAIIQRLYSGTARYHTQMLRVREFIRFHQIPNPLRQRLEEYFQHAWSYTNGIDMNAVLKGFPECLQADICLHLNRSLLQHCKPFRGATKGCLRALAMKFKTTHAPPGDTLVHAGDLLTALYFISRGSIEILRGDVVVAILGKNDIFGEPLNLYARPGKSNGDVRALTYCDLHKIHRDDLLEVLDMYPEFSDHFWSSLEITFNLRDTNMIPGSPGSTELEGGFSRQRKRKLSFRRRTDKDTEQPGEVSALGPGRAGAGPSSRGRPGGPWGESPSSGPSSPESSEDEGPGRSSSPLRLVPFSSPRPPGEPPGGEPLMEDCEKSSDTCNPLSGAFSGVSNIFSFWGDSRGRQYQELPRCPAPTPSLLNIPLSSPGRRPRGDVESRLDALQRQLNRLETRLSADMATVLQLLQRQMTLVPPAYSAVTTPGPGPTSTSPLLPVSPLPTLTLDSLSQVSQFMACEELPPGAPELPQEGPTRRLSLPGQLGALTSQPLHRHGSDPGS

CNc1nc(C)c2cc(-c3cnc(OC)c(NS(=O)(=O)c4ccc(F)cc4F)c3)cc(OC3CCOCC3)c2n1
IC50 (NCI-H460 [1]): 0.059 µM
IC50 (MDA-MB-231): 0.26 µM
IC50 (DU-145): 5.2 µM
inhibition in vivo at […] (HGC-27 [2]): 94.1%
Activity (Mus musculus [3]): Toxic
inhibition in vivo at 5 mg/kg (U-87 MG): 96%
IC90 (Mus musculus [4]): 4 ng/mL (≈ 7 nM)
IC50 (Mus musculus [4]; Mus musculus, BALB/c, NCI-H460): 0.8 ng/mL (≈ 1.4 nM)
IC50 (NCI-H460 [5]): 34 ng/mL (≈ 59.5 nM)
Activity (Salmonella typhimurium [6]): Toxic
Activity (Salmonella typhimurium [7]): Toxic
Activity (Salmonella typhimurium [8]): Toxic
Activity (Salmonella typhimurium [9]): Toxic
Activity (Salmonella typhimurium [10]): Toxic
IC50 [11]: > 10 µM
IC50 (Cytochrome P450 2C9): > 10 µM
IC50 (Cytochrome P450 3A4): > 10 µM
AUC [12]: 5576 ng·h/g
AUC(0-t) (in vivo [13]): 15500 ng·h/mL
Vd (in vivo [14]): 0.763 L/kg
clearance (in vivo [15]): 14.3 mL/min/kg
bioavailability (in vivo [16]): 44.4%
Cmax (in vivo [17]): 723 ng/g
AUC(0-t) at 24 h (in vivo [18]): 5460 ng·h/mL
MTD at 336 h (in vivo [19]): > 40 mg/kg
fraction unbound at 6 h, 2 µM (in vitro [20]): 0.0454
fraction unbound at 6 h, 2 µM (in vitro [21]): 0.0842

CNc1nc(C)c2cc(-c3cnc(OC)c(NS(=O)(=O)c4ccc(F)cc4F)c3)cc(O[C@@H]3CCOC3)c2n1
IC50 (MDA-MB-231): 0.48 µM
IC50 (DU-145): 6.5 µM
inhibition in vivo at 10 mg/kg (HGC-27 [22]): 94.6%
Activity (Mus musculus [23]): Toxic
inhibition in vivo at 5 mg/kg (U-87 MG): 89.4%
IC50 [11]: > 10 µM
IC50 (Cytochrome P450 2C9): > 10 µM
IC50 (Cytochrome P450 3A4): > 10 µM
AUC(0-t) (in vivo [13]): 11400 ng·h/mL
Vd (in vivo [14]): 1.56 L/kg
clearance (in vivo [15]): 34.5 mL/min/kg
bioavailability (in vivo [16]): 78.4%
Cmax (in vivo [17]): 433 ng/g
MTD at 336 h (in vivo [19]): > 40 mg/kg

COc1ncc(-c2cc(O[C@@H]3CCOC3)c3nc(N)nc(C)c3c2)cc1NS(=O)(=O)c1ccc(F)cc1F
IC50 (NCI-H460 [1]): 0.093 µM
IC50 (MDA-MB-231): 0.3 µM
IC50 (DU-145): 2.1 µM
inhibition in vivo at 20 mg/kg (NCI-H460 [24]): 75.9%
inhibition in vivo at 10 mg/kg (NCI-H460 [25]): 83.1%
inhibition in vivo at 5 mg/kg (NCI-H460 [26]): 41.9%
inhibition in vivo at 5 mg/kg (MGC-803 [27]): 55.1%
inhibition in vivo at 10 mg/kg (MGC-803 [28]): 69.3%
inhibition in vivo at 20 mg/kg (MGC-803 [29]): 77.8%
inhibition in vivo at 5 mg/kg (HGC-27 [30]): 36.1%
inhibition in vivo at 10 mg/kg (HGC-27 [22]): 74.7%
Activity (Mus musculus [31]): Toxic
Activity (Mus musculus [32]): Toxic
IC50 [11]: > 10 µM
IC50 (Cytochrome P450 2C9): > 10 µM
IC50 (Cytochrome P450 3A4): > 10 µM
TGI (NCI-H460 [33]): Dose-dependent effect
TGI (MGC-803 [34]): Dose-dependent effect
AUC(0-t) (in vivo [13]): 8690 ng·h/mL
Vd (in vivo [14]): 2.57 L/kg
clearance (in vivo [15]): 54.9 mL/min/kg
bioavailability (in vivo [16]): 96.2%
MTD at 336 h (in vivo [19]): > 50 mg/kg
